Data as given in US5110976A, “Insecticidal composition comprising more than one active ingredient” (priority 1985, dated 1992).

Tests used:
Tribolium confusum [1] = assay: Contact test on Tribolium confusum (Table 12); type: in vivo; settings: Tribolium confusum, 24 h; for mortality at 110 µg/disc: 0.11 mg/disc; for mortality at 330 µg/disc: 0.33 mg/disc; for mortality at 1000 µg/disc: 1.00 mg/disc; for mortality at 3000 µg/disc: 3.00 mg/disc
Procedure: (§1) The active ingredient is dissolved in a 1:2 mixture of oil and acetone; filter paper discs (Whatman No. 1, diameter 9 cm) are impregnated with the solutions of the corresponding stereoisomers and enantiomer-pairs, respectively. The acetone is allowed to evaporate, whereupon the insects are exposed to filter papers discs placed in Petri-dishes. Three parallels are used on each dose and 15 insects are placed into each Petri-dish. The percental mortality is determined after 24 hours. The corrected percent mortality is calculated by means of the Abbot Formula.
It appears from Table 12 that the increased activity shown in Example 41 is due to the synergistic effect of the trans-isomers to Tribolium confusum.

T. confusum [2] = assay: Activity as function of time, toxic symptoms (Table 16); type: in vivo, flour beetle (T. confusum), imagos
Procedure: as §1
Activity of cypermethrin stereoisomer-pairs as function of time on flour beetle (T. Confusum).
Flour beetle (T. confusum) imagos are exposed in Petri-dishes according to the method described in Example 43. For each dose 3 parallels are used and 15 animals are applied for each parallel test. In each point of time the insects lying on their backs are counted and the percental results are expressed in Table 16.

T. confusum [3] = assay: Contact method, synergism between stereoisomers (Table 2); type: in vivo; settings: Tribolium confusum, 24 h
Procedure: The stereoisomers are dissolved in a 1:2 mixture of mineral oil and acetone and filter paper discs (Whatman No. 1., diameter 9 cm) are impregnated with the corresponding dosage of the solution of the active ingredient. The acetone is allowed to evaporate and the insects are examined on filter paper discs placed into Petri-dishes. Three parallels are used for each dose and 15 animals are placed in each Petri-dish. Mortality rate is determined after 24 hours. The corrected mortality % data are calculated by means of the Abbot formula.
The test is carried out on T. confusum and the following results are obtained by the contact method for various active ingredient doses.
The test is carried out according to the method described in Example 20.

T. confusum [4] = assay: Topical LD50 (Table 3); type: in vivo, 1-2 weeks' old imagos; settings: topical, abdominal side
Procedure: (§2) In Table 3 the LD50 values of the Ig and Ii isomers and those of the Ib isomer-pair are disclosed. The data are topically measured.
(§3) The active ingredients are dissolved in 2-ethoxyethanol (cellosolve) and 0.3 μl droplets of the solutions are applied onto the dorsal cuticulum of 3-5 days' old female house flies. 10 animals are used and 2 parallels are carried out for each dose. The tests are carried out for 5 dose levels between activity limits of 0% and 100%. After treatment the flies are placed into glass vials. Mortality is determined after 24 hours. Data are transformed to log10 dosage and probit mortality. LD50 and confidence interval values are calculated by linear regression analysis of the log-probit data. The expected values required for the calculation of synergism are obtained by means of harmonic average. The synergistic factor is the quotient of the expected and measured values.
The active ingredients are dissolved in 2-ethoxyethanol and 0.3 μl droplets of the solutions are applied onto the abdominal side of 1-2 weeks' old imagos. Treatment is carried out with 2 parallels and 20 animals for each dose by using 5 dose levels in the range between activity limits of 0% and 100%. Evaluation and determination of LD50 values and synergistic factors are carried out as described in Example 21.

Musca domestica [5] = assay: Topical LD50 (Table 3); type: in vivo, house fly (Musca domestica), 3-5 days' old females; settings: topical, dorsal cuticulum; 24 hours
Procedure: as §2, §3

Musca domestica [6] = assay: Filter paper disc contact test (Table 11); type: in vivo, house fly (Musca domestica); settings: Musca domestica, 24 h
Procedure: In Table 1 the activity of various stereoisomers of cypermethrin on the house fly (Musca domestica) is shown.
as §1

Tribolium confusum [7] = assay: Contact test, mixtures of Ia and Ib of various ratio (Table 13); type: in vivo, flour beetle (Tribolium confusum)
Procedure: as §1
In Table 13 the insecticidal effect of mixtures of enantiomer-pairs Ia and Ib of various ratio is shown on flour beetle (Tribolium confusum). The test method is that disclosed in Example 43.

Colorado potato beetle = assay: Topical test on Colorado potato beetle (Table 14); type: in vivo, Colorado potato beetle (Leptinotersa decemlineata), imago
Procedure: In Table 14 the activity on Colorado potato beetle is shown.
The test materials are dissolved in 2-ethoxyethanol (Cellosolve). One 0.3 μl drop of the solution is applied to the abdominal sterna of the imago. The treatment is carried out by using 2 parallels and 10 insects for each dose. […]

Structure (SMILES)	mortality at 110 µg/disc (Tribolium confusum [1])	mortality at 330 µg/disc (Tribolium confusum [1])	mortality at 1000 µg/disc (Tribolium confusum [1])	mortality at 3000 µg/disc (Tribolium confusum [1])	% of insects showing toxic symptoms (T. confusum [2]; 30 minutes)	% of insects showing toxic symptoms (T. confusum [2]; 30 minutes, 0.33 mg/disc)	% of insects showing toxic symptoms (T. confusum [2]; 30 minutes, 1.00 mg/disc)	% of insects showing toxic symptoms (T. confusum [2]; 30 minutes, 3.00 mg/disc)	% of insects showing toxic symptoms (T. confusum [2]; 60 minutes)	% of insects showing toxic symptoms (T. confusum [2]; 60 minutes, 0.33 mg/disc)	% of insects showing toxic symptoms (T. confusum [2]; 60 minutes, 1.00 mg/disc)	% of insects showing toxic symptoms (T. confusum [2]; 60 minutes, 3.00 mg/disc)	% of insects showing toxic symptoms (T. confusum [2]; 120 minutes)	% of insects showing toxic symptoms (T. confusum [2]; 120 minutes, 0.33 mg/disc)	% of insects showing toxic symptoms (T. confusum [2]; 120 minutes, 1.00 mg/disc)	% of insects showing toxic symptoms (T. confusum [2]; 120 minutes, 3.00 mg/disc)	% of insects showing toxic symptoms (T. confusum [2]; 180 minutes)	% of insects showing toxic symptoms (T. confusum [2]; 180 minutes, 0.33 mg/disc)	% of insects showing toxic symptoms (T. confusum [2]; 180 minutes, 1.00 mg/disc)	% of insects showing toxic symptoms (T. confusum [2]; 180 minutes, 3.00 mg/disc)	also measured
CC1(C)[C@H](C=C(Cl)Cl)[C@@H]1C(=O)O[C@@H](C#N)c1cccc(Oc2ccccc2)c1 [Ih]	0%	38%	80%	100%	0%	0%	0%	0%	0%	0%	0%	8%	0%	0%	0%	67%	0%	0%	0%	88%	–
CC1(C)[C@@H](C=C(Cl)Cl)[C@@H]1C(=O)O[C@@H](C#N)c1cccc(Oc2ccccc2)c1 [Ii]	0%	0%	71%	90%	0%	0%	0%	15%	0%	0%	0%	70%	0%	0%	0%	100%	0%	0%	0%	100%	mortality at 110 µg/disc (T. confusum [3]; 0.11 mg/disc): 0%; mortality at 330 µg/disc (T. confusum [3]; 0.33 mg/disc): 0%; mortality at 1000 µg/disc (T. confusum [3]; 1.00 mg/disc): 71%; mortality at 3000 µg/disc (T. confusum [3]; 3.00 mg/disc): 90%; LD50 measured (T. confusum [4]): 1291.8 ng/insect; LD50 measured (Musca domestica [5]): 141.9 ng/insect
CC1(C)[C@H](C(=O)O[C@H](C#N)c2cccc(Oc3ccccc3)c2)[C@@H]1C=C(Cl)Cl [If]	–	100%	100%	100%	0%	0%	48%	64%	0%	5%	84%	100%	0%	40%	100%	100%	39%	61%	100%	100%	mortality at 40 µg/disc (Musca domestica [6]; 0.04 mg/disc): 68%; mortality at 110 µg/disc (Musca domestica [6]; 0.11 mg/disc): 93%; mortality at 330 µg/disc (Musca domestica [6]; 0.33 mg/disc): 100%; mortality at 1000 µg/disc (Musca domestica [6]; 1.00 mg/disc): 100%; mortality at 3000 µg/disc (Musca domestica [6]; 3.00 mg/disc): 100%
CC1(C)C(C=C(Cl)Cl)C1C(=O)OC(C#N)c1cccc(Oc2ccccc2)c1 (stereo not shown) [Ia:Ib = 3:7]	–	–	–	–	–	–	–	–	–	–	–	–	–	–	–	–	–	–	–	–	24 hours' mortality % (Tribolium confusum [7]; 0.02 mg/disc, 1440 min): 20%; 24 hours' mortality % (Tribolium confusum [7]; 0.06 mg/disc, 1440 min): 81%; 24 hours' mortality % (Tribolium confusum [7]; 0.25 mg/disc): 100%; 24 hours' mortality % (Tribolium confusum [7]; 1.00 mg/disc): 100%; 24 hours' mortality % (Colorado potato beetle; 0.05 μg/beetle): 45%; 24 hours' mortality % (Colorado potato beetle; 0.10 μg/beetle): 65%; 24 hours' mortality % (Colorado potato beetle; 0.20 μg/beetle): 75%; 24 hours' mortality % (Colorado potato beetle; 0.40 μg/beetle): 85%
CC1(C)C(C=C(Cl)Cl)C1C(=O)OC(C#N)c1cccc(Oc2ccccc2)c1 (stereo not shown) [5:5]	–	–	–	–	–	–	–	–	–	–	–	–	–	–	–	–	–	–	–	–	24 hours' mortality % (Tribolium confusum [7]; 0.02 mg/disc, 1440 min): 0%; 24 hours' mortality % (Tribolium confusum [7]; 0.06 mg/disc, 1440 min): 43%; mortality at 250 µg/disc (Tribolium confusum [7]; Tribolium confusum, 24 h, 0.25 mg/disc): 100%; mortality at 1000 µg/disc (Tribolium confusum [7]; Tribolium confusum, 24 h, 1.00 mg/disc): 100%
